The results in this text go back to patent US12077531B2, “Imidazopyridinone compound” (KISSEI PHARMACEUTICAL CO., LTD., priority 2018, dated 2024).

The target of the experiment is human PHD2184-418 (Homo sapiens (Human), UniProt Q9GZT9). Put plainly: PHD2 inhibitory test (fluorescence polarization, binding between PHD2 and HIF-1α). To be noted: for inhibition at 100 µM: read-out: inhibition rate at the compound concentration of 100 μM (numerals with *), compound concentration 100 μM; for IC50: human PHD2184-418, FITC-labeled HIF-1α556-574, 2 μM 2-oxoglutarate, 37° C. 60 minutes. The method, then: Test Example 1 PHD2 Inhibitory Test
(1) Expression and Preparation of Human PHD2184-418
Human PHD2184-418 containing amino acid residues 184 to 418 of the protein represented by CAC42509 (GenBank accession ID) was expressed and prepared by the following method.
An expression construct of human PHD2184-418 containing N-terminal histidine tag was introduced into pET-30a (+) vector, and the sequence was confirmed. This vector was introduced into BL21 (DE3) strain and cultured at 37° C. in LB medium containing antibiotics. After culturing, a cell lysis solution was added to the cells, and then the cells were disrupted by sonication. The disrupted suspension was centrifuged and the supernatant was purified by Ni column to give human PHD2184-418.
Human HIF-1α556-574 (FITC-labeled HIF-1α556-574), containing N-terminal FITC-Ahx, containing amino acid residues 556 to 574 (partial peptide) of HIF-1α was used as a substrate. Using FITC-labeled HIF-1α556-574, the competitive inhibition between 2-oxoglutarate and test compounds (PHD inhibitor) was evaluated based on the change in fluorescence polarization by the following method.
An enzyme (human PHD2184-418) and the substrate were diluted with an assay buffer (pH 7.4) containing 10 mM HEPES, 150 mM NaCl, 10 μM MnCl2-4H2O, 2 μM 2-oxoglutarate and 0.05% Tween-20. Test compounds were diluted with DMSO. Test compounds and human PHD2184-418 was added to the 384-well plate (Corning, black, opaque bottom) in advance. The reaction was started by the addition of FITC-labeled HIF-1α556-574. After incubating at 37° C. for 60 minutes, fluorescence polarization (excitation wavelength: 470 nm, fluorescence wavelength: 530 nm) was measured by PHERAstar FSX (BMG Labtech). Fluorescence polarization of each well was measured, and human PHD2 binding inhibitory activity of test compounds was calculated based on the value of test compound-free group.

Where a name gives a salt, the structure may show the parent alone.

Sequence of human PHD2184-418 (Q9GZT9 184-418): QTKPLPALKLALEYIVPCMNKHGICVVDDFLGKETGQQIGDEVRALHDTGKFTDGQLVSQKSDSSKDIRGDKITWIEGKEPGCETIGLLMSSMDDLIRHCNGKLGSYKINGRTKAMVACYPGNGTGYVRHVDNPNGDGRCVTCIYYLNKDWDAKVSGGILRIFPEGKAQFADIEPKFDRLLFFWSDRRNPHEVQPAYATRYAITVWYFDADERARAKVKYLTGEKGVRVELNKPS

Consider `Cc1cccnc1CN1CC[C@H](n2c(=O)n(-c3ccc(-c4ccccc4C(F)(F)F)cc3)c3cccnc32)C1` [Example 33, (S)-3-(1-((3-Methylpyridin-2-yl)methyl)pyrrolidin-3-yl)-1-(2′-(trifluoromethyl)-[1,1′-biphenyl]-4-yl)-1,3-dihydro-2H-imidazo[4,5-b]pyridin-2-one], for which the inhibition at 100 µM was found to be 41%. `Cn1ccnc1CN1CC[C@@H](n2c(=O)n(-c3ccc(-c4ccccc4)cc3)c3cccnc32)C1` [Example 3, (R)-1-([1,1′-Biphenyl]-4-yl)-3-(1-((1-methyl-1H-imidazol-2-yl)methyl)pyrrolidin-3-yl)-1,3-dihydro-2H-imidazo[4,5-b]pyridin-2-one] registered an IC50 of 3900 nM. Turning to `Cn1c(C(=O)O)cnc1CN1C[C@@H](F)[C@H](n2c(=O)n(-c3ccc(-c4ccc(C(=O)O)cc4)cc3)c3cccnc32)C1` [Example 25, 2-(((3R,4R)-3-(1-(4′-Carboxy-[1,1′-biphenyl]-4-yl)-2-oxo-1,2-dihydro-3H-imidazo[4,5-b]pyridin-3-yl)-4-fluoropyrrolidin-1-yl)methyl)-1-methyl-1H-imidazole-5-carboxylic acid], the 50% inhibitory concentration (IC50) was 110 nM.

In the case of `C=Cc1ccc(-n2c(=O)n([C@H]3CCN(Cc4ncc(C(=O)O)n4C)C3)c3ncccc32)cc1` [Example 69, (S)-1-Methyl-2-((3-(2-oxo-1-(4-vinylphenyl)-1,2-dihydro-3H-imidazo[4,5-b]pyridin-3-yl)pyrrolidin-1-yl)methyl)-1H-imidazole-5-carboxylic acid], the IC50 is 500 nM. The molecule `O=c1n(-c2ccc(-c3ccccc3)cc2)c2cccnc2n1[C@H]1CCN(Cc2ncc[nH]2)C1` [Example 7, (S)-3-(1-((1H-Imidazol-2-yl)methyl)pyrrolidin-3-yl)-1-([1,1′-biphenyl]-4-yl)-1,3-dihydro-2H-imidazo[4,5-b]pyridin-2-one] came in with an IC50 of 15600 nM. On the same count and under the same terms, the same measure for `O=C(O)c1ccnc(CN2CC[C@H](n3c(=O)n(-c4ccc(-c5ccc(O)c(C(=O)O)c5)c(O)c4)c4cccnc43)C2)c1` [Example 51, (S)-2-((3-(1-(3′-Carboxy-2,4′-dihydroxy-[1,1′-biphenyl]-4-yl)-2-oxo-1,2-dihydro-3H-imidazo[4,5-b]pyridin-3-yl)pyrrolidin-1-yl)methyl)isonicotinic acid]: 140 nM; for `Cn1ccnc1CN1CC[C@H](n2c(=O)n(-c3ccc(-c4ccc(O)cc4)cc3)c3cccnc32)C1` [Example 14, (S)-1-(4′-Hydroxy-[1,1′-biphenyl]-4-yl)-3-(1-((1-methyl-1H-imidazol-2-yl)methyl)pyrrolidin-3-yl)-1,3-dihydro-2H-imidazo[4,5-b]pyridin-2-one]: 360 nM. Same read-out and setting: the result for `Cn1c(C(=O)O)cnc1CN1CC[C@H](n2c(=O)n(-c3ccc(-c4ccc(NS(C)(=O)=O)cc4)cc3)c3cccnc32)C1` [Example 74, (S)-1-Methyl-2-((3-(1-(4′-(methylsulfonamido)-[1,1′-biphenyl]-4-yl)-2-oxo-1,2-dihydro-3H-imidazo[4,5-b]pyridin-3-yl)pyrrolidin-1-yl)methyl)-1H-imidazole-5-carboxylic acid] reads 1850 nM; that for `Cc1cccnc1CN1CC[C@H](n2c(=O)n(-c3ccc(-c4ccc(OC(F)(F)F)cc4)cc3)c3cccnc32)C1` [Example 35, (S)-3-(1-((3-Methylpyridin-2-yl)methyl)pyrrolidin-3-yl)-1-(4′-(trifluoromethoxy)-[1,1′-biphenyl]-4-yl)-1,3-dihydro-2H-imidazo[4,5-b]pyridin-2-one], 80500 nM; that for `O=C(O)c1ccc(CN2CC[C@H](n3c(=O)n(-c4ccc(-c5ccccc5)cc4)c4cccnc43)C2)nc1` [Example 17, (S)-6-((3-(1-([1,1′-Biphenyl]-4-yl)-2-oxo-1,2-dihydro-3H-imidazo[4,5-b]pyridin-3-yl)pyrrolidin-1-yl)methyl)nicotinic acid], 520 nM. Regarding `Cn1cnc(CN2CC[C@H](n3c(=O)n(-c4ccc(-c5ccccc5)cc4)c4cccnc43)C2)c1` [Example 6, (S)-1-([1,1′-Biphenyl]-4-yl)-3-(1-((1-methyl-1H-imidazol-4-yl)methyl)pyrrolidin-3-yl)-1,3-dihydro-2H-imidazo[4,5-b]pyridin-2-one hydrochloride], the inhibition at 100 µM was 34%.

Molecule `Cn1c(C(=O)O)cnc1CN1CC[C@H](n2c(=O)n(-c3ccc(-c4ccc(C(=O)O)cc4)cc3)c3cc(C(F)(F)F)cnc32)C1` [Example 26, (S)-2-((3-(1-(4′-Carboxy-[1,1′-biphenyl]-4-yl)-2-oxo-6-(trifluoromethyl)-1,2-dihydro-3H-imidazo[4,5-b]pyridin-3-yl)pyrrolidin-1-yl)methyl)-1-methyl-1H-imidazole-5-carboxylic acid] had an IC50 of 130 nM. Same read-out and setting: the result for `COc1ccc(-n2c(=O)n([C@H]3CCN(Cc4cc(C(=O)O)ccn4)C3)c3ncccc32)cc1` [Example 18, (S)-2-((3-(1-(4-Methoxyphenyl)-2-oxo-1,2-dihydro-3H-imidazo[4,5-b]pyridin-3-yl)pyrrolidin-1-yl)methyl)isonicotinic acid] reads 1950 nM; that for `O=c1n(-c2ccc(-c3ccccc3)cc2)c2cccnc2n1[C@H]1CCN(Cc2ccc(O)cn2)C1` [Example 9, (S)-1-([1,1′-Biphenyl]-4-yl)-3-(1-((5-hydroxypyridin-2-yl)methyl)pyrrolidin-3-yl)-1,3-dihydro-2H-imidazo[4,5-b]pyridin-2-one], 8030 nM; that for `Cn1c(C(=O)O)cnc1CN1CC[C@H](n2c(=O)n(-c3ccc(-c4ccccc4)cc3)c3ccc(C(=O)NC4CCOCC4)nc32)C1` [Example 76, (S)-2-((3-(1-([1,1′-Biphenyl]-4-yl)-2-oxo-5-((tetrahydro-2H-pyran-4-yl)carbamoyl)-1,2-dihydro-3H-imidazo[4,5-b]pyridin-3-yl)pyrrolidin-1-yl)methyl)-1-methyl-1H-imidazole-5-carboxylic acid], 9740 nM. As for `Cn1c(C(=O)O)cnc1CN1CC[C@H](n2c(=O)n(-c3ccc4ccccc4c3)c3cccnc32)C1` [Example 22, (S)-1-Methyl-2-((3-(1-(naphthalen-2-yl)-2-oxo-1,2-dihydro-3H-imidazo[4,5-b]pyridin-3-yl)pyrrolidin-1-yl)methyl)-1H-imidazole-5-carboxylic acid], the IC50 was 300 nM. This IC50 lies about 32-fold lower than the previous one. `Cn1c(C(=O)O)cnc1CN1CC[C@H](n2c(=O)n(-c3ccccc3)c3cccnc32)C1` [Example 87, (S)-1-Methyl-2-((3-(2-oxo-1-phenyl-1,2-dihydro-3H-imidazo[4,5-b]pyridin-3-yl)pyrrolidin-1-yl)methyl)-1H-imidazole-5-carboxylic acid] gave an IC50 of 3990 nM. Same read-out and setting: the same measure for `Cn1ccnc1CN1CC[C@H](n2c(=O)n(-c3ccc(-c4ccc(C(=O)O)cc4O)cc3)c3cccnc32)C1` [Example 44, (S)-2-Hydroxy-4′-(3-(1-((1-methyl-1H-imidazol-2-yl)methyl)pyrrolidin-3-yl)-2-oxo-2,3-dihydro-1H-imidazo[4,5-b]pyridin-1-yl)-[1,1′-biphenyl]-4-carboxylic acid]: 970 nM; for `Cn1c(C(=O)O)cnc1CN1CC[C@H](n2c(=O)n(-c3ccc(-c4ccccc4)cc3)c3ccc(C(=O)NCC(=O)O)nc32)C1` [Example 77, (S)-2-((3-(1-([1,1′-Biphenyl]-4-yl)-5-((carboxymethyl)carbamoyl)-2-oxo-1,2-dihydro-3H-imidazo[4,5-b]pyridin-3-yl)pyrrolidin-1-yl)methyl)-1-methyl-1H-imidazole-5-carboxylic acid]: 610 nM.
